Here are results for 28 compounds from paper PMC11285371 (Journal of medicinal chemistry, 2023).

The subject of series [1] is Mtb H37Rv::luxCDAB. Format: cell-based, Mycobacterium tuberculosis.
For series [2] the following is noted: 0.5 h.
The test system of series [3] is Mtb H37Rv strain expressing GFP. Put plainly: microbe, parasite or virus in culture. As to conditions: Mycobacterium tuberculosis. The format is cell-based.
Series [4] in a line: in vivo. As to conditions: CD1, mouse, po, 10 mg/kg, T1/2.
For series [5], the target named is T1, TGFBR1 (Homo sapiens, UniProt P36897).
T1 sequence (P36897 34-503): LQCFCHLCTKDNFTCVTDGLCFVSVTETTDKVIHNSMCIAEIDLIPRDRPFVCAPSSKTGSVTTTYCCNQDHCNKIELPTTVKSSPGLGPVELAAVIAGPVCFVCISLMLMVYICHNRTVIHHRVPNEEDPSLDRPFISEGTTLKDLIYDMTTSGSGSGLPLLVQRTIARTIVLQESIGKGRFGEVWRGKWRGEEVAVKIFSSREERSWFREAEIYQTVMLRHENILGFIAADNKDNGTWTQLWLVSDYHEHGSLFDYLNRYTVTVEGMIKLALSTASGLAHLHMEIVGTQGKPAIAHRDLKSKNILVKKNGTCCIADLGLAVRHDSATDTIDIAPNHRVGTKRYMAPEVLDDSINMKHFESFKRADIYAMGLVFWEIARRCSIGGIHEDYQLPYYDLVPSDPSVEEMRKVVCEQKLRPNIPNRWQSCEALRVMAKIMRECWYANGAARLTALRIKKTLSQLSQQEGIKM
Put plainly: TGFBR1 DiscoverX KINOMEscan binding assay.

The subject of series [6] is 192 human kinases. To be noted: 10 μM, K192 NanoBRET panel.
Series [7] has as its system drug-tolerant Mtb persisters. The format is cell-based, Mycobacterium tuberculosis.
Series [8] deals with T1, TGFBR1. Format: biochemical.
Series [9] has as its system Cas1 glioblastoma cell line. To be noted: cited from earlier work.
The subject of series [10] is 15 mammalian cell lines. To be noted: cited from earlier work.
The conditions of series [11]: cited from earlier work.

SMILES strings stand for the structures. “And” between values parts separate entries of the source, which are not always exact repeats. Identical values can stand only once. “Also recorded” adds a separate entry of the source.

Turning to `COc1cccc(-c2nc(Nc3ccncc3)c3ccccc3n2)n1` [compound 28], the “activity in the Mtb assay (in words)” value in series [1] is on record as “greatly reduced activity”.
Same read-out and setting: to `Fc1cccc(-c2nc(Nc3ccncc3)c3ccccc3n2)n1` [compound 26] belongs “reduced activity”.
For `Cc1cccc(-c2nc(Nc3ccncc3)c3cc(O)ccc3n2)n1` [compound 41], in series [2], the “metabolic stability in mouse liver microsomes (in words)” value (from here on “metabolic stability”) is “improved metabolic stability”. In series [1], the “activity in the Mtb assay (in words)” value was “less active”.
Take `NNC(=O)c1ccncc1` [isoniazid]: the MIC in series [3] is 3.6 µM and 0.5 µg/mL.
With `Cc1cccc(-c2nc(Nc3ccc4ccsc4c3)c3ccccc3n2)n1` [compound 22], in series [2], the “metabolic stability” value is recorded as “very low metabolic stability”.
As for `Cc1cccc(-c2nc(Nc3ccc4nn(C)nc4c3)c3ccccc3n2)n1` [compound 16], the half-life in [4] is above 3 h.
Consider `Cc1cccc(-c2nc(Nc3ccc4nc(C)sc4c3)c3ccccc3n2)n1` [compound 7], for which the “metabolic stability” value in series [2] is listed as “very low metabolic stability”. The “TGFBR1 binding activity (in words)” value in series [5] is “lost activity against TGFBR1”.
`c1ccc2c(Nc3ccncc3)nc(-c3cnccn3)nc2c1` [compound 31]: in [1], the “activity in the Mtb assay (in words)” value is “greatly reduced Mtb activity”.
Turning to `COc1ccc2nc(-c3cccc(C)n3)nc(Nc3ccncc3)c2c1` [compound 40], the “metabolic stability” value in series [2] was “improved metabolic stability”. Also, the “activity in the Mtb assay (in words)” value in [1] was “retained both potent bactericidal activity and TGFBR1 enzyme inhibition at 1 and 10 μM; also recorded: matched the activity of AQA in the Mtb assay”.
Take `Cc1cccc(-c2nc(Nc3ccc4nnn(C)c4c3)c3ccccc3n2)n1` [compound 17]: the “metabolic stability” value in [2] is “very low metabolic stability”.
As for `Cc1cccc(-c2nc(Nc3ccncc3)c3ccn(C)c3n2)n1` [compound 43], the “activity in the Mtb assay (in words)” value in [1] is given as “retained potent Mtb activity; also recorded: matched the activity of AQA in the Mtb assay; also recorded: low-micromolar activity against nonreplicating Mtb”. The “additional human kinases on which the compound was active” value in [6] is on record as 7/192.
Regarding `FC(F)(F)c1cccc(-c2nc(Nc3ccncc3)c3ccccc3n2)n1` [compound 27], the “activity in the Mtb assay (in words)” value in [1] is recorded as “reduced activity”.
On the same count and under the same terms, to `Cc1cccc(-c2cc(Nc3ccncc3)c3ccccc3n2)n1` [compound 46] belongs “weaker activity”.
For `Cc1cccc(-c2nc(Nc3ccc4[nH]ncc4c3)c3ccccc3n2)n1` [compound 11], the “metabolic stability” value in [2] is on record as “very low metabolic stability”.
As to `CC[C@@H](CO)NCCN[C@@H](CC)CO` [EMB, ethambutol], the “killing of persisters (cfu, in words)” value in [7] was “did not increase the level of killing by RIF and INH further”.
As for `COc1cncc(-c2nc(Nc3ccncc3)c3ccccc3n2)n1` [compound 32], the “activity in the Mtb assay (in words)” value in series [1] is “greatly reduced Mtb activity”.
As to `Cc1cccc(-c2cc3ccccc3c(Nc3ccncc3)n2)n1` [compound 45], in series [1], the “activity in the Mtb assay (in words)” value was “weaker activity”.
On the same count and under the same terms, to `c1cncc(-c2nc(Nc3ccncc3)c3ccccc3n2)c1` [compound 30] belongs “inactive”.
Turning to `Cc1cccc(-c2nc(Nc3ccc4nn[nH]c4c3)c3ccccc3n2)n1` [compound 14], the “antibacterial activity against nonreplicating Mtb (in words, relative to AQA)” value in series [1] is “reduced bactericidal activity”.
`Cc1cccc(-c2nc(Nc3ccc4c(cnn4C)c3)c3ccccc3n2)n1` [compound 12]: in series [2], the “metabolic stability” value was “very low metabolic stability”.
For `COc1ccc2c(Nc3ccncc3)nc(-c3cccc(C)n3)nc2c1` [compound 42], the “activity in the Mtb assay (in words)” value in [1] is listed as “less active”.
With `Clc1cccc(-c2nc(Nc3ccncc3)c3ccccc3n2)n1` [compound 25], the “metabolic stability” value in series [2] is “comparable”. For the same compound, the “activity in the Mtb assay (in words)” value in series [1] is “retained potent antibacterial activity; also recorded: matched the activity of AQA in the Mtb assay”.
For `Cc1cccc(-c2nc(Nc3ccc4c(c3)ncn4C)c3ccccc3n2)n1` [compound 10], the “antibacterial activity against nonreplicating Mtb (in words, relative to AQA)” value in [1] is given as “reduced bactericidal activity”.
As to `c1ccc(-c2nc(Nc3ccncc3)c3ccccc3n2)nc1` [compound 29], in [2], the “metabolic stability” value is “comparable”. In series [1], the “activity in the Mtb assay (in words)” value is “reduced activity”.
Take `Cc1cccc(-c2nc(C)cc(Nc3ccncc3)n2)n1` [compound 44]: the “activity in the Mtb assay (in words)” value in series [1] was “retained partial Mtb and TGFBR1 activity”. Also, in [8], the “TGFBR1 enzyme inhibition (in words)” value is “retained partial Mtb and TGFBR1 activity”.
As for `Cc1csc(-c2nc(Nc3ccncc3)c3ccccc3n2)n1` [compound 39], the “activity in the Mtb assay (in words)” value in series [1] is “lost activity against Mtb”.
Consider `Cc1cccc(-c2nc(Nc3ccncc3)c3ccccc3n2)n1` [AQA], for which the “toxicity against Cas1 glioblastoma cell line (in words)” value in [9] is “moderate toxicity”. For the same compound, in [10], the “toxicity against mammalian cell lines (in words)” value is reported as “minimal toxicity”. In series [11] (5 mg/kg p.o. in rats), the “acute toxicity (in words)” value was “no acute toxicity” and the “bioavailability (in words)” value is “poor”. Further, in series [11] (rats), the “oral bioavailability (in words)” value is reported as “modest oral bioavailability”. The “killing of persisters (cfu, in words)” value in series [7] is “further reduction of viable bacteria; also recorded: full activity against persisters”.
Consider `c1cnc(-c2nc(Nc3ccncc3)c3ccccc3n2)nc1` [compound 33], for which the “activity in the Mtb assay (in words)” value in series [1] is recorded as “greatly reduced Mtb activity”.
